Results on six compounds are retold here after US20220106289A1, “NLRP3 INHIBITORS” (INFLAZOME LIMITED, priority 2018, published 2022).

Data set [1] can be described thus: PK in rats, intravenous administration. Format: in vivo. The following applies: male, Sprague-Dawley; for AUC / half-life: rat plasma; for clearance / Vd: plasma, rat; for Vd: read-out: Vdss. As for the experimental part:
(§1) Pharmacokinetic parameters were determined in male Sprague Dawley rats (Charles River, UK, 250-300 g; or Vital River Laboratory Animal Technology Co Ltd, Beijing, China, 7-9 weeks old). Animals were individually housed during the study and maintained under a 12 h light/dark cycle. Animals had free access to food and water, except that orally dosed animals were food deprived overnight prior to the study. For intravenous administration, compounds were formulated as a solution in DMSO:PBS [10:90] in 2 mL/kg dosing volume and administered via tail vein. For oral administration, compounds were formulated as a solution in DMSO:water [10:90] in 5 mL/kg dosing volume and administered orally. Serial blood samples (about 200-230 μL) were taken from each animal at each of 8 time-points post dose (0.083, 0.25, 0.5, 1, 2, 4, 8 and 24 h). Samples were held on ice for no longer than 30 minutes before centrifugation (10,000 rpm (8,385 g) for 3 minutes; or 5,696 rpm (3,000 g) for 15 minutes) for plasma generation. Plasma was frozen on dry ice prior to bioanalysis. PK parameters were generated from LC-MS/MS data using Dotmatics or Phoenix WinNonlin 6.3 software.

The target in data set [2] is T1, NLRP3 (Homo sapiens, UniProt Q96P20). The data set is described as follows: Human whole blood IL-1β release assay (LPS + nigericin, AlphaLisa). The data set is classed as cell-based. Also on record: Human whole blood in Li-heparin tubes was obtained from healthy donors; from tissue; host or cells: human whole blood from healthy donors. As to conditions: NLRP3 inhibitory activity, 1 μg/ml LPS, 10 μM nigericin, read-out: HWB IC50.

Data set [3] can be described thus: PK in rats, oral administration. Format: in vivo. The following applies: male, Sprague-Dawley; for AUC / Cmax / Tmax / half-life: rat plasma; for CL/F / bioavailability: plasma, rat. As for the experimental part:
as §1

The target of data set [4] is T1, NLRP3. The experiment in a line: THP-1 cells pyroptosis assay (LPS + nigericin, resazurin read-out). Format: cell-based. Also on record: Seed THP-1 cells (25,000 cells/well) containing 1.0 μg/ml LPS; host or cells: THP-1 cells. As to conditions: NLRP3 inhibitory activity, 1 μg/ml LPS, 5 μM nigericin. In outline:
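THP-1 cells in serum-free RPMI were primed with 1 μg/ml LPS and incubated 3 h at 37° C with compound, then given 5 μM nigericin for 1 h. After supernatant removal, viability was read by 100 μM resazurin over 1-2 h at 37° C.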

Counter-ions that a name gives are not always drawn. Like-named read-outs stand apart in the source and are kept apart here.

T1 sequence (Q96P20 whole entry): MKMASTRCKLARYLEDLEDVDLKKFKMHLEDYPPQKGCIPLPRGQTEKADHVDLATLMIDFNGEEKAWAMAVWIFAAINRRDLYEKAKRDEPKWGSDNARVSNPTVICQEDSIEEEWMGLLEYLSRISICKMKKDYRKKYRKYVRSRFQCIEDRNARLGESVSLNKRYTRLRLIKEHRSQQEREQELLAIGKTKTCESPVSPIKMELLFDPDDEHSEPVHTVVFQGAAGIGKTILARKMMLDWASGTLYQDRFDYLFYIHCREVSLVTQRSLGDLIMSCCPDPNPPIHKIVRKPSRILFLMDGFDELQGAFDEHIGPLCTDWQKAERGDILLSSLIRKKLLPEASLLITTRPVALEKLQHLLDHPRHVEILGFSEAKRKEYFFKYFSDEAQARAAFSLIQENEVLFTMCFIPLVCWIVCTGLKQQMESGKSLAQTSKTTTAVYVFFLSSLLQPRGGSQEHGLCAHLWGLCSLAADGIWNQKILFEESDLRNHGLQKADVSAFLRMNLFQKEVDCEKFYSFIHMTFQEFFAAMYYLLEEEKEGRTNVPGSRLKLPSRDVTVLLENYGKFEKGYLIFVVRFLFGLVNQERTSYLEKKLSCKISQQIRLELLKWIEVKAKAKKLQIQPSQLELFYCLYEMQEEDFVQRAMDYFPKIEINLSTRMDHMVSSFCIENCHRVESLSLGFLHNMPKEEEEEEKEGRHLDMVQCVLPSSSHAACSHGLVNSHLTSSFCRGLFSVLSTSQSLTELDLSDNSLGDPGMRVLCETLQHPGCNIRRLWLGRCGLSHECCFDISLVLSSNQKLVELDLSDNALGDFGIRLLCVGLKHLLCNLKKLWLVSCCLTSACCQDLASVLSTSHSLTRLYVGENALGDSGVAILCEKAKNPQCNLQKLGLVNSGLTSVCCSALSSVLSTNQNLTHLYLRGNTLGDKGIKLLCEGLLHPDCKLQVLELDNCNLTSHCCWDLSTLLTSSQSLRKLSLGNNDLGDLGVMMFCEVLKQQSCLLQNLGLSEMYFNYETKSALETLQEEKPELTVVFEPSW

Consider `[2H]C([2H])([2H])C([2H])(n1ccc(S(=O)(=O)NC(=O)Nc2c3c(cc4c2CCC4)CCC3)n1)C([2H])([2H])[2H]` [Example 20, N-((1,2,3,5,6,7-Hexahydro-s-indacen-4-yl)carbamoyl)-1-(propan-2-yl-d7)-1H-pyrazole-3-sulfonamide, potassium salt], for which, in data set [1] (1 mg/kg), the AUC came to 21600 ng·h/mL, the half-life was 4.7 h, the clearance amounted to 0.8 mL/min/kg and the Vd turned out to be 0.25 L/kg.
On to `COC(C)(C)c1cc(S(=O)(=O)NC(=O)Nc2c3c(cc4c2CCC4)CCC3)nn1C` [Example 39, N-((1,2,3,5,6,7-Hexahydro-s-indacen-4-yl)carbamoyl)-5-(2-methoxypropan-2-yl)-1-methyl-1H-pyrazole-3-sulfonamide], for which, on NLRP3 [2], the IC50 fell in the range of 500 to 1000 nM. For the same compound, in data set [3] (3 mg/kg), the AUC was found to be 3920 ng·h/mL, the highest concentration (Cmax) came out at 1370 ng/mL, the Tmax came to 0.83 h and the half-life is 2.2 h. In data set [3] (3 mg/kg), this compound displayed a CL/F of 13 mL/min/kg and a bioavailability above 100%. In data set [1] (3 mg/kg), the AUC stood at 3840 ng·h/mL, the half-life is 4 h, the clearance stood at 13.1 mL/min/kg and the Vd was found to be 0.9 L/kg. The IC50 on NLRP3 [4] was below 250 nM.
Turning to `CCn1ccc(S(=O)(=O)NC(=O)Nc2c3c(cc4c2CCC4)CCC3)n1` [Example 45, 1-Ethyl-N-((1,2,3,5,6,7-hexahydro-s-indacen-4-yl)carbamoyl)-1H-pyrazole-3-sulfonamide, sodium salt], the IC50 at NLRP3 [2] was 1000 to 5000 nM. In data set [3] (3 mg/kg), the AUC turned out to be 61600 ng·h/mL, the concentration peaked (Cmax) at 7900 ng/mL, the Tmax was determined as 2 h and the half-life was 2.5 h. The CL/F in data set [3] (3 mg/kg) is 0.8 mL/min/kg. In addition, on NLRP3 [4], the IC50 was below 250 nM.
As to `CC(C)n1cnc(S(=O)(=O)NC(=O)Nc2c3c(cc4c2CCC4)CCC3)n1` [Example 46, N-((1,2,3,5,6,7-Hexahydro-s-indacen-4-yl)carbamoyl)-1-isopropyl-1H-1,2,4-triazole-3-sulfonamide, sodium salt], the IC50 at NLRP3 [2] lay within 500 to 1000 nM. For the same compound, in data set [1] (1 mg/kg), the AUC was 10000 ng·h/mL, the half-life is 4 h, the clearance came to 1.7 mL/min/kg and the Vd came out at 0.45 L/kg. Further, the IC50 on NLRP3 [4] was in the range of 250 to 500 nM.
As to `COC1(c2cc(S(=O)(=O)NC(=O)Nc3c4c(cc5c3CCC5)CCC4)nn2C)CCC1` [Example 51, N-((1,2,3,5,6,7-Hexahydro-s-indacen-4-yl)carbamoyl)-5-(1-methoxycyclobutyl)-1-methyl-1H-pyrazole-3-sulfonamide], the IC50 on NLRP3 [2] lay within 250 to 500 nM. Further, in data set [1] (1 mg/kg), the AUC was 4870 ng·h/mL, the half-life was 1 h, the clearance turned out to be 3.4 mL/min/kg and the Vd was 0.29 L/kg. For the same compound, the IC50 at NLRP3 [4] is below 250 nM.
Consider `COC(C)(C)c1cc(S(=O)(=O)NC(=O)Nc2c(C(C)C)cc(Cl)cc2C(C)C)nn1C` [Example 83, N-((4-Chloro-2,6-diisopropylphenyl)carbamoyl)-5-(2-methoxypropan-2-yl)-1-methyl-1H-pyrazole-3-sulfonamide], for which the IC50 on NLRP3 [2] was 1000 to 5000 nM. For the same compound, in data set [3] (1.3 mg/kg), the AUC was 2750 ng·h/mL, the Cmax came out at 468 ng/mL, the Tmax amounted to 3.17 h and the half-life was 3.7 h. In data set [3] (1.3 mg/kg), the CL/F is 8.5 mL/min/kg and the bioavailability was above 100%. In data set [1] (1 mg/kg), the AUC is 1130 ng·h/mL, the half-life is 3.9 h, the clearance came to 14.8 mL/min/kg and the Vd came to 2.23 L/kg. For the same compound, the IC50 at NLRP3 [4] is below 250 nM.
